Results reported in ChEMBL document CHEMBL4627391, “Bioactive Compounds from the Aerial Parts of Evolvulus linarioides” (J Nat Prod, 2020).

What was measured:
[1] = test system: J774; assay: Antiinflammatory activity in mouse J774 cells assessed as inhibition of LPS/IFNgamma-induced NO production incubated for 24 hrs by Griess method; assay type: functional, cell-based; details: J774, 24 h
[2] = Cytotoxicity against mouse J774 cells assessed as reduction in cell viability after 72 hrs by Alamar Blue assay; assay type: cell-based
[3] = test system: J774; assay: Antiinflammatory activity in mouse J774 cells assessed as LPS/IFNgamma-induced IL-1beta level at 6.3 uM incubated for 24 hrs by ELISA (reference value: 9.6 to 26.1 pg/mg); assay type: functional
[4] = test system: J774; assay: Antiinflammatory activity in mouse J774 cells assessed as LPS/IFNgamma-induced IL-1beta level at 25 uM incubated for 24 hrs by ELISA (reference value: 9.6 to 26.1 pg/mg); assay type: functional
[5] = test system: J774; assay: Antiinflammatory activity in mouse J774 cells assessed as LPS/IFNgamma-induced IL-1beta level at 100 uM incubated for 24 hrs by ELISA (reference value: 9.6 to 26.1 pg/mg); assay type: functional
[6] = test system: J774; assay: Antiinflammatory activity in mouse J774 cells assessed as inhibition of LPS/IFNgamma-induced IL-1beta level incubated for 24 hrs by ELISA relative to control; assay type: functional
[7] = test system: J774; assay: Antiinflammatory activity in mouse J774 cells assessed as inhibition of LPS/IFNgamma-induced IL-1beta level at 10 uM incubated for 24 hrs by ELISA relative to control; assay type: functional; details: J774, 24 h

SMILES | IC50 [1] | CC50 at 72 h [2] | Activity [3] | Activity [4] | Activity [5] | Imax [6] | inhibition at 10 µM [7]
O=c1cc(CO)oc2cc(O)cc(O)c12 [CNIDIMOL C] | 22.4 µM | 256 µM | 15.7 pg/mg | 10.5 pg/mg | 3.9 pg/mg | 72.7% | –
CC(=O)OC[C@@]1(O)CC[C@H]2O[C@@]2(C)CC[C@@H]2[C@@H]1CC2(C)C | 52.2 µM | 273 µM | 10.2 pg/mg | 6.5 pg/mg | 2.4 pg/mg | 75% | –
O=c1cc(CO[C@@H]2O[C@H](CO)[C@@H](O)[C@H](O)[C@H]2O)oc2cc(O)cc(O)c12 [MONNIERISIDE A] | 66.3 µM | 201 µM | 14.6 pg/mg | 9.1 pg/mg | 2 pg/mg | 85.5% | –
C=C1CC[C@@H]2[C@H](CC2(C)C)[C@@](O)(CO)CC[C@@H]1O | 17.8 µM | 193 µM | 14.3 pg/mg | 7 pg/mg | 0.7 pg/mg | 93% | –
CN(C)c1ccc(C(=C2C=CC(=[N+](C)C)C=C2)c2ccc(N(C)C)cc2)cc1 [GENTIAN VIOLET] | – | 0.8 µM | – | – | – | – | –
C/C=C(/C)C(=O)OCC(O)(COC(=O)/C(C)=C\C)[C@H](OC(=O)/C(C)=C\C)[C@@H](COC(C)=O)OC(C)=O (some centres not stated) | 28.2 µM | 198 µM | 7.3 pg/mg | 9.3 pg/mg | 1.1 pg/mg | 88.5% | –
C[C@@H]1C[C@H]2[C@@H]3CCC4=CC(=O)C=C[C@]4(C)[C@@]3(F)[C@@H](O)C[C@]2(C)[C@@]1(O)C(=O)CO [DEXAMETHASONE] | 5.2 µM | – | – | – | – | – | 87.1%
C/C=C(/C)C(=O)OC[C@@H](OC(C)=O)[C@@H](OC(=O)/C(C)=C\C)C(O)(COC(=O)/C(C)=C\C)COC(=O)/C(C)=C\C | 34.2 µM | 206 µM | 15.6 pg/mg | 14.6 pg/mg | 3.8 pg/mg | 80.6% | –
CC[C@@H](CO)C(=O)OC[C@@H]1O[C@H](OCc2cc(=O)c3c(O)cc(O)cc3o2)[C@@H](O)[C@H](O)[C@H]1O | 25.3 µM | 209 µM | 8.4 pg/mg | 8.6 pg/mg | 0.3 pg/mg | 96.2% | –
C/C1=C/C[C@@H]2[C@H](CC2(C)C)[C@@](O)(CO)CC[C@@H]1O | 30.3 µM | 194 µM | 28.6 pg/mg | 14 pg/mg | 1.5 pg/mg | 92.5% | –
Cc1cc(=O)c2c(O)cc(O[C@@H]3O[C@H](CO)[C@@H](O)[C@H](O)[C@H]3O)cc2o1 [UNDULATOSIDE A] | 51.2 µM | 191 µM | 14.5 pg/mg | 9.5 pg/mg | 1.5 pg/mg | 89.6% | –
